# Data as given in ChEMBL document CHEMBL1201862, “PubChem BioAssay data set” (2004).
# Activity calls are given as the source filed them.
# Key:
# [1] = biological target: Voltage-dependent T-type calcium channel subunit alpha-1H (Homo sapiens, UniProt O95180); test: human CACNA1H calcium influx blockade – cell-based, synthetic library set 1, calcium flux (AID 493022); assay type: functional
# [2] = biological target: T1, Tyrosine-protein phosphatase non-receptor type 7 (Homo sapiens, UniProt P35236); test: inhibition of hematopoietic tyrosine phosphatase HePTP – biochemical, set 2, SAR follow-up (AID 449736); assay type: functional
# T1 sequence (P35236 whole entry): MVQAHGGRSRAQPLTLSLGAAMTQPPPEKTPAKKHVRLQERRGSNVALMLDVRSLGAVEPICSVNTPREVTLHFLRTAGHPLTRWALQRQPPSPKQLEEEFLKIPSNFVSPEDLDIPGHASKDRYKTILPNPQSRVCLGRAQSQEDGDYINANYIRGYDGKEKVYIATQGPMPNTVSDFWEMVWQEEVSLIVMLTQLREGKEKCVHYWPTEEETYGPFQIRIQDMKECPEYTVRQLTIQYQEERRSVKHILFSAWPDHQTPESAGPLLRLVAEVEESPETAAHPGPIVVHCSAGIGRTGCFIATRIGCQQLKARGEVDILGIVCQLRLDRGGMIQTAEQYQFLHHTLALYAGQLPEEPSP
# HEK293 [3] = test: HEK293T cell viability loss, resazurin readout – resazurin fluorescence, cytotoxicity control for NF-kB activator project, SAR follow-up (AID 493251); assay type: functional, cell-based; conditions: Homo sapiens
# Jurkat = test: SAR Analysis of small molecule inhibitors of […] specific antigen receptor-induced NF-kB activation in a Jurkat cell line using a luminescence assay - Set 3. [Related pubchem assays (depositor defined):AID435022, AID435025, AID465]; assay type: functional, cell-based; conditions: Homo sapiens
# HEK293 [4] = test: SAR Analysis of small molecule inhibitors of B-cell specific antigen receptor-induced NF-kB activation in a HEK-293T cell line using a luminescence assay - Set 2. [Related pubchem assays (depositor defined):AID435022, AID435025, AID489021]; assay type: functional, cell-based; conditions: Homo sapiens
# Trypsin = Trypsin (Sus scrofa, UniProt P00761); test: trypsin protease activity blockade – biochemical, quenched peptide fluorescence, cherry-pick, selectivity assay for Rce1 protease inhibitor project, dose response (AID 488789)
# [5] = biological target: Alkaline phosphatase, placental type (Homo sapiens, UniProt P05187); test: human placental alkaline phosphatase inhibition – biochemical, luminescence, confirmation (AID 1512); assay type: functional
# [6] = biological target: Glyceraldehyde-3-phosphate dehydrogenase (Homo sapiens, UniProt P04406)
# Troponin, cardiac muscle = Troponin, cardiac muscle (Homo sapiens, UniProt P19429+P45379+P63316); test: Fluorescence-based biochemical high throughput dose response assay for activators of the calcium sensitivity of cardiac Regulated Thin Filaments (RTF). [Related pubchem assays (depositor defined):AID493008, AID493018, AID504382, AID504383]; assay type: protein-complex assay
# Streptokinase A = biological target: T2, Streptokinase A (Streptococcus pyogenes serotype M1, UniProt P10520); test: viability-normalized secreted streptokinase activity reduction – plasminogen activation absorbance, OD405, dose response (AID 1914); assay type: functional, Streptococcus pyogenes M1 GAS;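 note: secreted streptokinase activity via plasminogen activation per viability signal from cell pellet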
# T2 sequence (P10520 whole entry): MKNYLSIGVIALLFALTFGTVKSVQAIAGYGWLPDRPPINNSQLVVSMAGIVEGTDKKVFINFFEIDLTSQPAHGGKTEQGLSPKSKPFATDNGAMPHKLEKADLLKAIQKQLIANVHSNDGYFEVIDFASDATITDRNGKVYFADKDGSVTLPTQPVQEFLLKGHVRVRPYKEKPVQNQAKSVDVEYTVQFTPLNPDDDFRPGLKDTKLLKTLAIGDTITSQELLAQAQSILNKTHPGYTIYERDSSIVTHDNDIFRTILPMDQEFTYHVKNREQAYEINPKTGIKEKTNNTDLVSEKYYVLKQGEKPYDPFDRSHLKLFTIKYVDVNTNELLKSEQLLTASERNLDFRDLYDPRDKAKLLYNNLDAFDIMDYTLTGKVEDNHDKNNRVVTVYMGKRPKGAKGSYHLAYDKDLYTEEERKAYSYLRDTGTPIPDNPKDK
# [7] = test system: Streptococcus sp. 'group A'; test: Streptococcus pyogenes SK(-)GAS viability under kanamycin – luminescence, BacTiterGlo, confirmation, counter-screen for streptokinase expression inhibitor project, dose response (AID 1900); assay type: functional, organism-based
# [8] = biological target: Polyadenylate-binding protein 1 (Homo sapiens, UniProt P11940); test: blockers of PABP interaction with poly(A) – biochemical, fluorescence polarization, […] (AID 2014)
# [9] = biological target: T3, Carboxy-terminal domain RNA polymerase II polypeptide A small phosphatase 1 (Homo sapiens, UniProt Q9GZU7); test: CTDSP1 inhibitors, concentration-response, biochemical, absorbance readout, ultra-high-throughput screen actives (AID 540297); assay type: functional
# T3 sequence (Q9GZU7 whole entry): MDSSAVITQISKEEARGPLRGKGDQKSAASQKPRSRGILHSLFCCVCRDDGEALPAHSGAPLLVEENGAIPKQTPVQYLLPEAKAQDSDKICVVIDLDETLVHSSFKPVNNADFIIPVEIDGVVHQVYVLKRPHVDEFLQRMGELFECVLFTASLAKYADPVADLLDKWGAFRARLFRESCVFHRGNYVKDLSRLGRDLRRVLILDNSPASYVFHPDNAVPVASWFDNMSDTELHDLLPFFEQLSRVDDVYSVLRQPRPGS
# [10] = biological target: Eukaryotic translation initiation factor 4H (Homo sapiens, UniProt Q15056); test: eIF4H binding inhibition – biochemical, uHTS, fluorescence polarization, translation initiation inhibitor project, primary screen (AID 2012)
# Streptococcus = test: GAS UMAA2166 growth inhibition – luminescence, BacTiterGlo, counter-screen for streptokinase expression inhibitor project, dose response (AID 1915); assay type: functional, organism-based;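 note: potency for reduction of bacterial viability or growth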
# [11] = biological target: G2/mitotic-specific cyclin-B1 (Homo sapiens, UniProt P14635); test: HeLa cell cycle G2/M accumulation – FACS, mechanism study for Wee1 degradation inhibitor project, late-stage follow-up, panel member Cyclin B Degradation (AID 2088)
# Wee1-like protein kinase = Wee1-like protein kinase (Homo sapiens, UniProt P30291); test: HeLa cell cycle G2/M accumulation – FACS, mechanism study for Wee1 degradation inhibitor project, late-stage follow-up, panel member Wee1 Degradation (AID 2088)
# [12] = biological target: T4, Tyrosine-protein phosphatase non-receptor type 22 (Homo sapiens, UniProt Q9Y2R2); assay type: functional
# T4 sequence (Q9Y2R2 whole entry): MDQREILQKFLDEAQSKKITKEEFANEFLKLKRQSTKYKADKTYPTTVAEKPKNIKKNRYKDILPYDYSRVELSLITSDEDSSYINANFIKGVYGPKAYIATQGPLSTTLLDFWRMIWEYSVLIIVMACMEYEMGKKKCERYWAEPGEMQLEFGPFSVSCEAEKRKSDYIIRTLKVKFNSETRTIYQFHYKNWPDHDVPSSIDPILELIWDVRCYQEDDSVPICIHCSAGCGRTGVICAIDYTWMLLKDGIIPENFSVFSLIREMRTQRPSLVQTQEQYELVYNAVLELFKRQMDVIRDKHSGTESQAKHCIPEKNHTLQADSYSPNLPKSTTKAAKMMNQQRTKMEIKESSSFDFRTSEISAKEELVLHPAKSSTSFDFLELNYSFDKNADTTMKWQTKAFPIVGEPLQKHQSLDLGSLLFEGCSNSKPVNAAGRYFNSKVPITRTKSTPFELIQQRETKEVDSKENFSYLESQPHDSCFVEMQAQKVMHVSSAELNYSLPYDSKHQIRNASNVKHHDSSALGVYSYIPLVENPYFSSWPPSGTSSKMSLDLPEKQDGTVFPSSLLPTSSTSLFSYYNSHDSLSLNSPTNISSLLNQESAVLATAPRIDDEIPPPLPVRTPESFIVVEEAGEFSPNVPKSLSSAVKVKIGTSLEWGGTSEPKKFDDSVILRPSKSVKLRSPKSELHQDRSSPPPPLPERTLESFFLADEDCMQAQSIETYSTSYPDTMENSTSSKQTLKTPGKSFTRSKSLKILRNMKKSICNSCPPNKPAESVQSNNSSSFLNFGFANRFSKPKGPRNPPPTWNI
# [13] = biological target: T4, Tyrosine-protein phosphatase non-receptor type 22; assay type: functional; remark: listed apart in the source
# [14] = biological target: T1, Tyrosine-protein phosphatase non-receptor type 7; assay type: functional
# [15] = decrease of insulin promoter-GFP reporter – imaging, high-content screening, mouse beta cells (AID 1628); assay type: functional; conditions: MIN6
# [16] = MIN6 cell viability loss – mouse insulinoma, cytotoxicity control, dose response (AID 2122); assay type: functional;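 note: confirmatory high-throughput counterscreen run to flag cytotoxic compounds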
# [17] = biological target: E3 ubiquitin-protein ligase XIAP (Homo sapiens, UniProt P98170); test: Counter Screen using XIAP-Bir3 for Chemical Antagonists of Bir1/2 domains of IAP-family anti-apoptotic proteins. [Related pubchem assays (depositor defined):AID1018, AID1449, AID1514, AID1638, AID1749, AID1750, AID488957, AID488963]
# [18] = biological target: T5, Mannose-6-phosphate isomerase (Homo sapiens, UniProt P34949); test: phosphomannose isomerase inhibition – biochemical, fluorescence intensity, confirmation (AID 1535)
# T5 sequence (P34949 whole entry): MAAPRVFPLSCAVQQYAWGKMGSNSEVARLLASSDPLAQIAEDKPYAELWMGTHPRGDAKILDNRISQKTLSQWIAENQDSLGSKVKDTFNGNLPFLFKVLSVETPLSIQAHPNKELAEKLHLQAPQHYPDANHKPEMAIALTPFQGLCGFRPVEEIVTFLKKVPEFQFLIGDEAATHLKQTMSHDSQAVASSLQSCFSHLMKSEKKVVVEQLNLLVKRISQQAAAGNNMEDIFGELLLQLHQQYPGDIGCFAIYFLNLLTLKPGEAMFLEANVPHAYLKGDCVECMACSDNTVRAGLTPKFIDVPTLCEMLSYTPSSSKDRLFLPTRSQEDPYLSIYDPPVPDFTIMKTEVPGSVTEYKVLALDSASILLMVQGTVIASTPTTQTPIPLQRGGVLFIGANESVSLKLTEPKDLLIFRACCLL
# Phosphomannomutase 2 = Phosphomannomutase 2 (Homo sapiens, UniProt O15305); test: Counter screen SAR assay for PMM2 inhibitors via a fluorescence intensity assay. [Related pubchem assays (depositor defined):AID1545, AID1574]
# [19] = biological target: Voltage-gated inwardly rectifying potassium channel KCNH2 (Homo sapiens, UniProt Q12809); conditions: Potency;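 note: confirmatory quantitative high-throughput screen measuring inhibition of hERG channel activity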
# [20] = viability loss in THP-1 monocytes – THP-1 cells, cytotoxicity control for Vif-APOBEC3G degradation inhibitor project, dose response (AID 1117359); assay type: functional; conditions: THP-1
# [21] = Fluorescence-based cell-based high throughput dose response assay for inhibitors of the interaction of nucleotide-binding oligomerization domain containing 2 (NOD2) and the receptor-interacting serine-threonine kinase 2 (RIPK2).; assay type: functional; conditions: Homo sapiens
# Beta-galactosidase = Beta-galactosidase (Escherichia coli, UniProt Q8VNN2); test: detection-enzyme interference by beta-gal modulators – biochemical, E. coli enzyme, set 3, artefact control for CCR6 antagonist project, dose response (AID 504712); assay type: functional
# Sequence of Wee1-like protein kinase (P30291 whole entry): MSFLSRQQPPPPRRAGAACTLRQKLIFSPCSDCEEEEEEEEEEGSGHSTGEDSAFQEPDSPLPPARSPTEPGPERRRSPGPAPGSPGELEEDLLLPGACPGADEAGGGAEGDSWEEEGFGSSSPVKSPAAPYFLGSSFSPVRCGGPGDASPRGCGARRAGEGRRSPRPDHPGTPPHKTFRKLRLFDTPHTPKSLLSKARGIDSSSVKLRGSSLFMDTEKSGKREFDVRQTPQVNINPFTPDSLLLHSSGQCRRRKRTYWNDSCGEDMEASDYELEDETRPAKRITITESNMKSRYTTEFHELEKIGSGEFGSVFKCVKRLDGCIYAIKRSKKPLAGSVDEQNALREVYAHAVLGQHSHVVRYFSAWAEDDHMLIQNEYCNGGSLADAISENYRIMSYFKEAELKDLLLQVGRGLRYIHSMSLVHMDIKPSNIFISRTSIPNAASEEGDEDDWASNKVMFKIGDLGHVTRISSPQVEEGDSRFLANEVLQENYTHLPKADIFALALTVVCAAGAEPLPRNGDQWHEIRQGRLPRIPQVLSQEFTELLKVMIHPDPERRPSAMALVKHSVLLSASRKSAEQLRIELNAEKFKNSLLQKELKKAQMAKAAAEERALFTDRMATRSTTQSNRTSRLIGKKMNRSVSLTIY
# Sequence of Voltage-dependent T-type calcium channel subunit alpha-1H (O95180 whole entry): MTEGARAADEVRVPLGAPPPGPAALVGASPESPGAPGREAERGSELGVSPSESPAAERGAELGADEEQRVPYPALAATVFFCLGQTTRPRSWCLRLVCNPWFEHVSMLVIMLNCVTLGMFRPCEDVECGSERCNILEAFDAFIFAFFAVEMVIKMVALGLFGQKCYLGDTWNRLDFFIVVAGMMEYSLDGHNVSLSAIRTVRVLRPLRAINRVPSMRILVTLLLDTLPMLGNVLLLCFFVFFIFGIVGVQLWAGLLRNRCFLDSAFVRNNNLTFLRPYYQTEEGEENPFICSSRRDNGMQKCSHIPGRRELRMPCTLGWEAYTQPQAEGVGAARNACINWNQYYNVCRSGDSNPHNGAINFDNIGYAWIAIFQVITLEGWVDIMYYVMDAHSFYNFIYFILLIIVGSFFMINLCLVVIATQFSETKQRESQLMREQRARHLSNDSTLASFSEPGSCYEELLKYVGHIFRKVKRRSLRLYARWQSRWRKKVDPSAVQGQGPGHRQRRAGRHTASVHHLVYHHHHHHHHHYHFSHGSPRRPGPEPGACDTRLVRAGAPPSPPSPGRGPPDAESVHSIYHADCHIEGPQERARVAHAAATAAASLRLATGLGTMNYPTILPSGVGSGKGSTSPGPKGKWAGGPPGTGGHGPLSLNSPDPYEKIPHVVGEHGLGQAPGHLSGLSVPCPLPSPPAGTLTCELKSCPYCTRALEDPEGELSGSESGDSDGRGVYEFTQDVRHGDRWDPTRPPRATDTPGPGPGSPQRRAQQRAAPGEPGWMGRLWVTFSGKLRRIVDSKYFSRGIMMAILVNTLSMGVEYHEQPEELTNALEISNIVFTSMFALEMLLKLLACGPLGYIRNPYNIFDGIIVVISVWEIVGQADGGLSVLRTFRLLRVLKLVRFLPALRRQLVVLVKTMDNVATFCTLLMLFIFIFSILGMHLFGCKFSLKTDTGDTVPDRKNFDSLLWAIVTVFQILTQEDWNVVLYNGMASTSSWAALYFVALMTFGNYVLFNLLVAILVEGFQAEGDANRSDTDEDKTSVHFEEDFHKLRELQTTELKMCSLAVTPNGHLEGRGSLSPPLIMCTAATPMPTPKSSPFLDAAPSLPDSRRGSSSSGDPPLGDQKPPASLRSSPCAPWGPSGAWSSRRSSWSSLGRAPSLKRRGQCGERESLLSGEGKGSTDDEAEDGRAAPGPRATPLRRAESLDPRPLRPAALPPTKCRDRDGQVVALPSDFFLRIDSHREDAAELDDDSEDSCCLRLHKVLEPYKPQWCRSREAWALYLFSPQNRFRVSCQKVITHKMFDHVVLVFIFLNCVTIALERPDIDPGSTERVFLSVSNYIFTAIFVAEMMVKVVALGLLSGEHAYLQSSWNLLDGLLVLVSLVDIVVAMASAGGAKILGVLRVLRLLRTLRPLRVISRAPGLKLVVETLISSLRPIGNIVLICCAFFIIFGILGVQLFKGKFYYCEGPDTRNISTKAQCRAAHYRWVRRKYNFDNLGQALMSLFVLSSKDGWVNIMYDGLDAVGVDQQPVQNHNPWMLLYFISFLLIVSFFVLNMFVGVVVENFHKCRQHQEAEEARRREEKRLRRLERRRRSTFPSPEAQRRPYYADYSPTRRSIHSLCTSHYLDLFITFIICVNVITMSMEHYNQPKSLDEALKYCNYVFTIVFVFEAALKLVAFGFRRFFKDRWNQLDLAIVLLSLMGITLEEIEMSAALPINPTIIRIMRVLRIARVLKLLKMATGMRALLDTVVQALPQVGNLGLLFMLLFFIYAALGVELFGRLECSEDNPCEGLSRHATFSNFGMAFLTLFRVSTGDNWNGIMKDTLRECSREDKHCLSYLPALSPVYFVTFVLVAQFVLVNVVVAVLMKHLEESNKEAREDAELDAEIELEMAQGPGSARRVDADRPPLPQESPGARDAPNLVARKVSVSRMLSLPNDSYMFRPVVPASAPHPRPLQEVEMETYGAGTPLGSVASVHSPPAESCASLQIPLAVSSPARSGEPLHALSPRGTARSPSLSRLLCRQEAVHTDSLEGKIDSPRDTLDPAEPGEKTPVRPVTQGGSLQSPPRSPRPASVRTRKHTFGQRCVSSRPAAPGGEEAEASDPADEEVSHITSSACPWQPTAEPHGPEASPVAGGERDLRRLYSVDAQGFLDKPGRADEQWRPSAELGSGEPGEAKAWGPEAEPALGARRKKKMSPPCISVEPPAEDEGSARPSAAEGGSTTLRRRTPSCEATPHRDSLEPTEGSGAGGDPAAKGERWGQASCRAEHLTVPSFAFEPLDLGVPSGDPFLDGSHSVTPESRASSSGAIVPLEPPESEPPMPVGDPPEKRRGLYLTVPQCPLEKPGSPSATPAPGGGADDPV
# Sequence of G2/mitotic-specific cyclin-B1 (P14635 whole entry): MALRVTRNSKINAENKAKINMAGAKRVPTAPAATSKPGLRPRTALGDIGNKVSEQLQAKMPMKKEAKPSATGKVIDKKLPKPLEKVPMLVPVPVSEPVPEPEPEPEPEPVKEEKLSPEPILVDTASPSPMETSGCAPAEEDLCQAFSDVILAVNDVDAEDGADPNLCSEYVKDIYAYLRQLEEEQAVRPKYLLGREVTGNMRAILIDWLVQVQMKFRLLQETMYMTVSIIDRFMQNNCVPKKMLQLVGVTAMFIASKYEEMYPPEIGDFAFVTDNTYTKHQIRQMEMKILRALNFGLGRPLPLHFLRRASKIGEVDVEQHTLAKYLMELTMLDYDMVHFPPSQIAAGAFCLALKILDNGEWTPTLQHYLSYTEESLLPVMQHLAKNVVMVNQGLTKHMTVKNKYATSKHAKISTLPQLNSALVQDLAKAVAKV
# Sequence of Voltage-gated inwardly rectifying potassium channel KCNH2 (Q12809 whole entry): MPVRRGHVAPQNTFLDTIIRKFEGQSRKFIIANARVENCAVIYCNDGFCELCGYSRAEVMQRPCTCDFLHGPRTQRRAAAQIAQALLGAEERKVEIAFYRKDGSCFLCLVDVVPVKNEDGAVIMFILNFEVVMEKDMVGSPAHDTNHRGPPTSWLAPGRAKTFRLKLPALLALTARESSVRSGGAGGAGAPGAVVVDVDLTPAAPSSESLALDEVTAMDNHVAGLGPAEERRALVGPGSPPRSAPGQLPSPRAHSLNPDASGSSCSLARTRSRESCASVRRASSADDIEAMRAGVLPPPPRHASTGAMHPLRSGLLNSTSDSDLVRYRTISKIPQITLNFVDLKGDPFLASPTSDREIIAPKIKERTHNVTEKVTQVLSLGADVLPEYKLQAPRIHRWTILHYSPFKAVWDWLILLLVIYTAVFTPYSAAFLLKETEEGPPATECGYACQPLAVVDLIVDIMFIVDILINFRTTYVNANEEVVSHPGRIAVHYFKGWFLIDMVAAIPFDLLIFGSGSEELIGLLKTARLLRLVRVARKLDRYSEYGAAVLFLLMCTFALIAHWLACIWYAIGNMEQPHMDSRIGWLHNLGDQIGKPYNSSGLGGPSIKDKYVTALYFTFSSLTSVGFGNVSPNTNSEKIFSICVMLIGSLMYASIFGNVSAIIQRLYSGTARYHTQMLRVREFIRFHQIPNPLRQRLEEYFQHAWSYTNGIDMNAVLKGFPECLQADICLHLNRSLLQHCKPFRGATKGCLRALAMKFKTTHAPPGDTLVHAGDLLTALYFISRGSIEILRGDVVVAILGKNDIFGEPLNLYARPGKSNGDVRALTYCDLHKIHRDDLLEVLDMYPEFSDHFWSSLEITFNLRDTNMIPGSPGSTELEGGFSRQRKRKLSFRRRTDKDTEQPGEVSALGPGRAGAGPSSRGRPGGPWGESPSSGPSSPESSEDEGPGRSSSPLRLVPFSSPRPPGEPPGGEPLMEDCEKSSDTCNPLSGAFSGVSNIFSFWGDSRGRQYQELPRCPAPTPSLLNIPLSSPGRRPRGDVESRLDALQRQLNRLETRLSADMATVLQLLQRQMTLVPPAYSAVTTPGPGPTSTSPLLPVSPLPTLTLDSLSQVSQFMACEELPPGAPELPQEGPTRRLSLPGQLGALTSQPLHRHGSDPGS
# Sequence of Trypsin (P00761 whole entry): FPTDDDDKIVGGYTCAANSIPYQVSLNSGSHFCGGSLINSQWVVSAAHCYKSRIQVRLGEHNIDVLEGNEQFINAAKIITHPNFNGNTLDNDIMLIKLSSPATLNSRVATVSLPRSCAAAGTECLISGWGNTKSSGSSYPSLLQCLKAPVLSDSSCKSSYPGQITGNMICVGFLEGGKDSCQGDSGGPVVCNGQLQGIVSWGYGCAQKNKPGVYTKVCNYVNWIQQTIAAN
smiles,measurement,setting,value
O=C(COc1ccc(F)cc1Cl)Nc1nnc(-c2ccc3ccccc3c2)o1,EC50,[1],3.6 µM (active)
NS(=O)(=O)c1ccc(NC(S)=NC2CCCC2)cc1,IC50,[2],28 µM (active)
CCCNC(=O)CCc1nc(-c2ccc(C(C)(C)C)cc2)no1,IC50,HEK293 [3],> 80 µM (inactive)
same,IC50,Jurkat,> 80 µM (inactive)
same,IC50,HEK293 [4],9.19 µM (active)
NS(=O)(=O)c1ccc(NC(=O)/C=C/c2cn(-c3ccccc3)nc2-c2cccc(Cl)c2)cc1,AC50,Trypsin,81.4 µM (active)
CC(C)(C)NC(=O)c1cc(-c2ccc(Cl)cc2Cl)n[nH]1,IC50,[5],> 100 µM (inactive)
same,IC50,[6],> 100 µM (not active)
CCOC(=O)/C(=C\c1c[nH]c2ccccc12)NC(C)=O,EC50,"Troponin, cardiac muscle",> 71.4 µM (inactive)
COc1ccc(C(CC(=O)N2CCCC(C)C2)c2c(OC)cc(OC)c3c(-c4ccccc4)cc(=O)oc23)cc1 (stereo unspecified),EC50,Streptokinase A,41.2 µM (active)
same,EC50,[7],14.5 µM (active)
same,IC50,[8],28.3 µM (active)
same,IC50,[9],7.99 µM (active)
same,IC50,[10],8.23 µM (active)
same,EC50,Streptococcus,> 150 µM (not active)
Cc1ccc(-c2nnc(NC(=O)COc3ccc(F)cc3)o2)cc1C,EC50,[1],10 µM (active)
CSc1cccc(NC(=O)CCCOc2cc(=O)n(C)c3ccccc23)c1,EC50,[11],> 49.7 µM (inactive)
same,EC50,Wee1-like protein kinase,> 49.7 µM (inactive)
O=C(c1cc2cc(F)ccc2[nH]1)N1CCN(C(=O)c2ccco2)CC1,IC50,[12],> 79.4 µM (inactive)
same,IC50,[13],> 79.4 µM (inactive)
same,IC50,[14],> 79.4 µM (inactive)
CCOc1ccc(-c2nc(CSCC(=O)NCc3cccs3)c(C)o2)cc1,IC50,HEK293 [3],34.8 µM (inactive)
same,IC50,Jurkat,> 80 µM (inactive)
same,IC50,HEK293 [4],24.3 µM (inactive)
Cn1c(N2CCOCC2)c(/C=N/OC(=O)c2cccnc2Cl)c2ccccc21,IC50,[15],3.37 µM (active)
same,IC50,[16],1.4 µM (active)
O=C(Nc1ccc2c(c1)OCCO2)c1cccc(Cl)c1Cl,EC50,"Troponin, cardiac muscle",> 71.4 µM (inactive)
Cc1cc(O)nc(-n2nc(C)cc2NC(=O)c2ccccc2)n1,EC50,[11],> 49.7 µM (inactive)
same,EC50,Wee1-like protein kinase,> 16.6 µM (active)
Cc1ccc(C(=O)COc2ccccc2C(=O)Nc2ccccc2)cc1,IC50,[17],> 20 µM (inactive)
Sc1n[nH]c(-c2ccccc2Cl)n1,IC50,[18],> 50 µM (inactive)
same,IC50,Phosphomannomutase 2,> 100 µM (inactive)
CC(C)COC(=O)c1ccccc1C(=O)OCC(C)C,AC50,[19],35.5 µM (inconclusive)
CCOC(=O)c1cc([N+](=O)[O-])cc([N+](=O)[O-])c1Sc1[nH]cnc2ncnc1-2,CC50,[20],1.6 µM (active)
same,IC50,[21],3.29 µM (active)
same,IC50,Beta-galactosidase,> 66.6 µM (inactive)
